Entries after “also recorded” stand apart in the source; their conditions may differ.
Experiments:
human liver microsomes = assay: in vitro glucuronidation assay with pooled human liver microsomes; type: in vitro ADME; settings: 100 μg pooled human liver microsomes (n=20), 500 μM compound
Experimental: Human liver microsomes metabolize resveratrol much faster than pterostilbene. […] HPLC chromatographs are presented depicting either parent compound or indicated glucuronide metabolite. Glucuronide metabolite peaks were confirmed by subsequent treatment with β-glucuronidase (data not shown). Detection of peaks by UV/VIS detector at 308 nm.
Specifically, in vitro glucuronidation assays were performed as previously described in one co-inventor's work (Dellinger, R. W., et al., “Glucuronidation of PhIP and N—OH-PhIP by UDP-glucuronosyltransferase 1A10,” Carcinogenesis (2007) 28: 2412-8; Dellinger, R. W., et al., “Importance of UDP-glucuronosyltransferase 1A10 (UGT1A10) in the detoxification of polycyclic aromatic hydrocarbons: decreased glucuronidative activity of the UGT1A10139Lys isoform,” Drug Metab. Dispos. (2006) 34: 943-9; Chen, G., Dellinger, R. W., et al., “Glucuronidation of tobacco-specific nitrosamines by UGT2B10,” Drug Metab. Dispos.

SKH-1 mice = assay: UV-B-induced skin damage and loss of barrier function (redness, TEWL) in SKH-1 mice, topical treatment; type: in vivo; settings: topical 10 μmol/0.2 ml acetone/mouse 30 minutes before 180 mJ/cm^2 UV-B, every 2 days, 7 treatments; for prevention of UV-mediated transepidermal water loss (TEWL) / loss of barrier function: versus vehicle+UV-B
Source text: FIG. 2 depicts the manner in which pterostilbene prevents UV-B induced damage in the skin of SKH-1 mice. […] Photographs show representative mice after 4th treatment.
FIG. 3 depicts the manner in which pterostilbene prevents UV-mediated loss of skin barrier function in SKH-1 mice after exposure to UV-B radiation as described above for FIG. 2. TEWL measurements are expressed in g/m^2·h (and labeled ‘TD Water Loss’).
UV-B exposure. Mice were exposed to a single dose of 180mJ/cm^2 UVB radiation delivered via broadband UVB lamps (TL 40W/12 RS; Philips) emitting 290-350 nm light with a peak emission at 312 nm. The irradiance was measured using a thermopile sensor (818P-001-12; Newport Inc., Irvine, Calif.) and power meter (842-PE; Newport Inc.).
TEWL measurement. For transepidermal water loss (TEWL) a closed measurement chamber device (VapoMeter, Delfin Technologies Ltd, Kuopio, Finland) measuring flux density (gram/m^2·h) was used applying the sensor with even and constant pressure to dorsal skin by a single operator per manufacturer's instructions.
Statistics. All statistical analyses were performed using CRAN R, version 3.0.0, an open-source program of The R Foundation for Statistical Computing. Linear mixed-effect models were fit for each endpoint with a random effect for the mouse and fixed effects for UV exposure, treatment group, and their interaction.
Hairless SKH-1 mice were used to evaluate the effectiveness of pterostilbene at preventing UV-mediated damage in skin. The SKH-1 model is ideally suited for this purpose and is commonly used in preclinical studies and yielded valuable results. […] To ascertain if pterostilbene could also prevent those molecular alterations, we replicated these experiments. […] For all topical treatments 200 μl total volume was applied to the back skin of the mouse. For acetone group, 200 μl of acetone was applied. […] These mice were treated every 2 days for 7 total treatments. […] 24 hrs after last treatment, mice were euthanized, skin bi-fold measurements taken and back skins collected. […] This prevention of visual skin damage by pterostilbene correlated nicely with the prevention of loss of barrier function. […] Therefore pterostilbene prevented UV-induced loss of barrier function of the skin of SKH-1 mice.

[1] = cited from earlier work
[2] = rats; cited from earlier work
[3] = 125 mg orally twice a day; cited from earlier work
mouse epidermis = settings: cited from earlier work
mouse skin = settings: cited from earlier work
[4] = humans; cited from earlier work

| fraction metabolized (glucuronidated) after 2 hours (human liver microsomes) | Compound | redness (sunburn) on back skin after UV-B (SKH-1 mice) | prevention of UV-mediated transepidermal water loss (TEWL) / loss of barrier function (SKH-1 mice) | half life t1/2 in blood [1] | increased bioavailability in comparison to resveratrol [2] | overall blood pressure [3] | toxicity in patients [3] | COX-2 activation and TPA-induced tumor formation in mouse epidermis in vivo (mouse epidermis) | conversion to glucuronides after 2 hours (in words) (human liver microsomes) | prevention of UV-mediated transepidermal water loss (TEWL) / loss of barrier function (SKH-1 mice; listed as Resveratrol) | UV-B mediated cell damage (including hyperplasia) in mouse skin (mouse skin; given orally or applied topically) | UV-induced skin cancer progression (mouse skin; several mouse studies) | bioavailability (in words) [4] |
| --- | --- | --- | --- | --- | --- | --- | --- | --- | --- | --- | --- | --- | --- |
| 20% | COc1cc(/C=C/c2ccc(O)cc2)cc(OC)c1 [pterostilbene, 3,5-dimethoxy-4′-hydroxy-trans-stilbene] | no redness was observed on any of the 5 mice | prevents TEWL after UV exposure; also recorded: prevented UV-mediated TEWL | about 105 minutes | 5 fold | reduction in overall blood pressure was observed | no toxicity reported | prevent |  |  |  |  |  |
|  | Oc1ccc(C=Cc2cc(O)cc(O)c2)cc1 [resveratrol] | able to limit the amount of redness observed on the back, it did not prevent it | did not prevent TEWL | about 14 minutes |  |  |  |  | almost completely converted to its glucuronides | ineffective | prevents UV-B mediated cell damage (including hyperplasia) | block UV-induced skin cancer progression | poor bioavailability |
